Measured values reported in the OligoGym collection.
“And” between values parts separate entries of the source, which are not always exact repeats. Equal values may be shown once. After the bases stand the sugars from the 5' end (letter, count) and the backbone: PS all phosphorothioate, else s phosphorothioate and o phosphodiester by linkage. Methylation of C is not given here. e = 2'-O-(2-methoxyethyl) (MOE); k = constrained ethyl (cEt); d = 2'-deoxy (DNA)

Biological target: SOD1
Conditions: ASO

GTTTAATGTTTATCAG (sugars kekeddddddddekek, linkages s1 o3 s8 o1 s2)
target mRNA inhibition (A431, 0.12 µM): 7%
target mRNA inhibition (A431, 0.6 µM): 7%
target mRNA inhibition (A431, 3 µM): 41%
target mRNA inhibition (A431, 15 µM): 66%
target mRNA inhibition (HepG2, 0.222 µM): 58%
target mRNA inhibition (HepG2, 0.667 µM): 78%
target mRNA inhibition (HepG2, 2 µM): 86%
target mRNA inhibition (HepG2, 6 µM): 94%

CATAATAAGTGCCATAC (sugars e2 k2 d8 k2 e3, PS)
target mRNA inhibition (HepG2, 5 µM): 32%

CGCCCACTCTGGCCCCA (sugars e3 k2 d7 k2 e3, PS)
target mRNA inhibition (HepG2, 3 µM): 14%

ATACATTTCTACAGCT (sugars ekddddddddekekee, linkages s1 o1 s8 o3 s2)
target mRNA inhibition (A431, 0.12 µM): 0%
target mRNA inhibition (A431, 0.6 µM): 9%
target mRNA inhibition (A431, 3 µM): 0%
target mRNA inhibition (A431, 15 µM): 25%
target mRNA inhibition (HepG2, 0.222 µM): 43%
target mRNA inhibition (HepG2, 0.667 µM): 58%
target mRNA inhibition (HepG2, 2 µM): 79%
target mRNA inhibition (HepG2, 6 µM): 91%

ACAGTGTTTAATGTTTAT (sugars e5 d8 e5, linkages s1 o3 s9 o2 s2)
target mRNA inhibition (A431, 0.12 µM): 0%
target mRNA inhibition (A431, 0.6 µM): 18%
target mRNA inhibition (A431, 3 µM): 26%
target mRNA inhibition (A431, 15 µM): 45%
target mRNA inhibition (HepG2, 0.222 µM): 19%
target mRNA inhibition (HepG2, 0.667 µM): 30%
target mRNA inhibition (HepG2, 2 µM): 46% and 50%
target mRNA inhibition (HepG2, 6 µM): 70%

GTTTATCAGGATACATT (sugars e2 k2 d8 k2 e3, PS)
target mRNA inhibition (HepG2, 0.1875 µM): 41%
target mRNA inhibition (HepG2, 0.75 µM): 73%
target mRNA inhibition (HepG2, 3 µM): 89%
target mRNA inhibition (HepG2, 4 µM): 85%
target mRNA inhibition (HepG2, 12 µM): 92% and 95%

AGTGATCATAAATCAGT (sugars e2 k2 d9 k2 e2, PS)
target mRNA inhibition (HepG2, 5 µM): 32%

TAAGTCTGGCAAAATAC (sugars e3 k2 d7 k2 e3, PS)
target mRNA inhibition (HepG2, 3 µM): 4%

TCAGTTTCTCACTACAG (sugars e2 k2 d9 k2 e2, PS)
target mRNA inhibition (HepG2, 5 µM): 43%

TTGGCCCACCGTGTTTTCTG (sugars e5 d10 e5, PS)
target mRNA inhibition (HepG2, 5 µM): 35% and 26%

TATCAGGATACATTTCTACA (sugars e5 d10 e5, PS)
target mRNA inhibition (HepG2, 0.1875 µM): 13%
target mRNA inhibition (HepG2, 0.75 µM): 16%
target mRNA inhibition (HepG2, 3 µM): 48%
target mRNA inhibition (HepG2, 5 µM): 58%
target mRNA inhibition (HepG2, 12 µM): 81%

GAATGTTTATTGGGCGA (sugars e2 k2 d9 k2 e2, PS)
target mRNA inhibition (HepG2, 4 µM): 65%

AGTGTTTAATGTTTATC (sugars e2 k2 d8 k2 e3, linkages s1 o2 s9 o2 s2)
target mRNA inhibition (A431, 0.12 µM): 31%
target mRNA inhibition (A431, 0.6 µM): 68%
target mRNA inhibition (A431, 3 µM): 83%
target mRNA inhibition (A431, 15 µM): 86%
target mRNA inhibition (HepG2, 0.222 µM): 68%
target mRNA inhibition (HepG2, 0.667 µM): 76%
target mRNA inhibition (HepG2, 2 µM): 86%
target mRNA inhibition (HepG2, 6 µM): 84%

TTAAGTCTGGCAAAATA (sugars e2 k2 d8 k2 e3, PS)
target mRNA inhibition (HepG2, 5 µM): 27%

TTTTAAGATTACAGTGTTTA (sugars e5 d10 e5, PS)
target mRNA inhibition (HepG2, 5 µM): 13%

ACATGCCTCTCTTCATC (sugars e3 k2 d7 k2 e3, PS)
target mRNA inhibition (HepG2, 3 µM): 0%

TTTAATGTTTATCAGG (sugars ekddddddddekekee, linkages s1 o1 s8 o3 s2)
target mRNA inhibition (A431, 0.12 µM): 20%
target mRNA inhibition (A431, 0.6 µM): 5%
target mRNA inhibition (A431, 3 µM): 12%
target mRNA inhibition (A431, 15 µM): 33%
target mRNA inhibition (HepG2, 0.222 µM): 21%
target mRNA inhibition (HepG2, 0.667 µM): 38%
target mRNA inhibition (HepG2, 2 µM): 58%
target mRNA inhibition (HepG2, 6 µM): 81%

TCTGTGATTTAAGTCTG (sugars e2 k2 d9 k2 e2, PS)
target mRNA inhibition (HepG2, 5 µM): 49%

ATAACAGATGAGTTAAG (sugars e2 k2 d8 k2 e3, PS)
target mRNA inhibition (HepG2, 4 µM): 27%

TGATCATAAATCAGTTT (sugars e2 k2 d8 k2 e3, PS)
target mRNA inhibition (HepG2, 5 µM): 49%

GCCCTTCAGCACGCACA (sugars e2 k2 d8 k2 e3, PS)
target mRNA inhibition (HepG2, 0.1875 µM): 8%
target mRNA inhibition (HepG2, 0.75 µM): 38%
target mRNA inhibition (HepG2, 3 µM): 74%
target mRNA inhibition (HepG2, 4 µM): 75%
target mRNA inhibition (HepG2, 12 µM): 96%

GCCCTTCAGCACGCACA (sugars e2 k2 d9 k2 e2, PS)
target mRNA inhibition (HepG2, 4 µM): 60%

TTATTGGGCGATCCCAA (sugars e3 k2 d7 k2 e3, PS)
target mRNA inhibition (HepG2, 3 µM): 15%

AAGTCATCTGCTTTTTC (sugars e3 k2 d7 k2 e3, PS)
target mRNA inhibition (HepG2, 3 µM): 83%

GCTTCCCCACACCTTCA (sugars e3 k2 d7 k2 e3, PS)
target mRNA inhibition (HepG2, 3 µM): 36%

AGCAGGATAACAGATGAGTT (sugars e5 d10 e5, PS)
target mRNA inhibition (HepG2, 4 µM): 70%
target mRNA inhibition (HepG2, 12 µM): 89%

CAGGATACATTTCTACA (sugars e2 k2 d9 k2 e2, PS)
target mRNA inhibition (HepG2, 0.1875 µM): 38%
target mRNA inhibition (HepG2, 0.75 µM): 71%
target mRNA inhibition (HepG2, 3 µM): 89%
target mRNA inhibition (HepG2, 4 µM): 85% and 86%
target mRNA inhibition (HepG2, 12 µM): 91% and 97%
